# Data as given in patent US20260158017A1, “KIF18A INHIBITOR” (WIGEN BIOMEDICINE TECHNOLOGY (SHANGHAI) CO., LTD., priority 2021, published 2026).
# Biological target: T1, Recombinant human KIF18A (1-467His-tagged) protein (Homo sapiens, UniProt Q8NI77)
# T1 construct: Recombinant human KIF18A (1-467His-tagged) protein; His; made in house
# Experiment: KIF18A enzyme assay (microtubule-stimulated ATPase activity, ADP-Glo)
# Type: biochemical
# Conditions: 30 nM KIF18A, 75 μM ATP, 30 μg/mL pig microtubules; read-out: Inhibitory activity against KIF18A IC50
# Summary of the method: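 Buffer 15 mM Tris pH 7.5, 10 mM MgCl2, 0.01% Pluronic F-68, 1 μM paclitaxel, 30 μg/mL pig microtubules; reactions at room temperature. IC50 from inhibition relative to DMSO.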
# T1 sequence (Q8NI77 1-467): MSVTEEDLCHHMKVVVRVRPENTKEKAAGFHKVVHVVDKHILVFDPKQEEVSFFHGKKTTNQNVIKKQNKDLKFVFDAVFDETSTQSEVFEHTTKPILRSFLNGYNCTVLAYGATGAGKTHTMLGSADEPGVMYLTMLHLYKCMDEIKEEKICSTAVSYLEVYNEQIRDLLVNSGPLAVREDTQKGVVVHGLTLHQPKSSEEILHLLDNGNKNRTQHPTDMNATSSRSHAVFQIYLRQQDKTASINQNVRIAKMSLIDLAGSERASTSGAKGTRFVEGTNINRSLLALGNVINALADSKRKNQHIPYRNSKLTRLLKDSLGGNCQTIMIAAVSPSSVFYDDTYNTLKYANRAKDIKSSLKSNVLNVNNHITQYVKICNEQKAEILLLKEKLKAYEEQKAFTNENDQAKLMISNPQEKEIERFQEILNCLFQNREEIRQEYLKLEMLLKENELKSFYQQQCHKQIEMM
# T1 sequence (P02550 whole entry partner): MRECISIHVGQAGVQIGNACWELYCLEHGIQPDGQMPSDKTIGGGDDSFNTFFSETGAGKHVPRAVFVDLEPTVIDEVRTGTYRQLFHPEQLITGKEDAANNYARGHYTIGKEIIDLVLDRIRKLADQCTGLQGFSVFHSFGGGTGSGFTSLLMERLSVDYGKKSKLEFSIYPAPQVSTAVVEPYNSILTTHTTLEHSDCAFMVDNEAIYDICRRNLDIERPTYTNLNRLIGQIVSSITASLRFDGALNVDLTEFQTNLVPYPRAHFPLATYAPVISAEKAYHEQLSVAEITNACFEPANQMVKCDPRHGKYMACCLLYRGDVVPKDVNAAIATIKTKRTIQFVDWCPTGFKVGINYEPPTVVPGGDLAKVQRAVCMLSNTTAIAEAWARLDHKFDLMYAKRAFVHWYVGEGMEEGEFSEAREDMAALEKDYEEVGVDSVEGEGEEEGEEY
# T1 sequence (P02554 whole entry partner): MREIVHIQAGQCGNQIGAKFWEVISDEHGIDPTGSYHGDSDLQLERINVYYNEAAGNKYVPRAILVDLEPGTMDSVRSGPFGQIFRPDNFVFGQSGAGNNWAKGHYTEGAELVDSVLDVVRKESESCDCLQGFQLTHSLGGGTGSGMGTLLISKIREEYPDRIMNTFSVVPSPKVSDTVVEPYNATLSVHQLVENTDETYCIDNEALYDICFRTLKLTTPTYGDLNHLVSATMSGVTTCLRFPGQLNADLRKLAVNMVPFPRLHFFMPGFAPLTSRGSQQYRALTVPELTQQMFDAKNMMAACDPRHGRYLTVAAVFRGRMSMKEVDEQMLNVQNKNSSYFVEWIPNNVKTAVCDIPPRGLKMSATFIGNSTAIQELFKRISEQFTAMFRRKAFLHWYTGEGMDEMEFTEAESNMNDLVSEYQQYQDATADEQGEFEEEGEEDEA
row,SMILES,IC50 [nM]
1,C[C@@H](CO)NS(=O)(=O)c1cc(N2CCC3(CC2)CC3)c(C(=O)Nc2ccc(OCF)c(N3CCC(F)(F)CC3)n2)cn1 [Compound 509],≤ 100
2,C[C@H](CO)NS(=O)(=O)c1cc(N2CCC3(CC2)CC3)c(C(=O)Nc2ccc(OCF)c(N3CCC(F)(F)CC3)n2)cn1 [Compound 510],≤ 100
3,C[C@@H]1CN(c2nc(NC(=O)c3cnc(S(=O)(=O)N[C@@H](C)CO)cc3N3CCC4(CC3)CC4)ccc2OCF)CCO1 [Compound 511],≤ 100
4,C[C@H](CO)NS(=O)(=O)c1cc(N2CCC3(CC2)CC3)c(C(=O)Nc2ccc(OCF)c(N3CCO[C@H](C)C3)n2)cn1 [Compound 512],≤ 100
5,O=C(Nc1ccc(NS(=O)(=O)CCO)cc1N1CCC2(CC1)CC2)c1ccc(OCF)c(N2CCC(F)(F)CC2)c1 [Compound 513],≤ 100
6,C[C@@H]1CN(c2cc(C(=O)Nc3ccc(NS(=O)(=O)CCO)cc3N3CCC4(CC3)CC4)ccc2OCF)CCO1 [Compound 514],≤ 100
7,C[C@H]1CN(c2cc(C(=O)Nc3ccc(NS(=O)(=O)CCO)cc3N3CCC4(CC3)CC4)ccc2OCF)CCO1 [Compound 515],≤ 100
8,O=C(Nc1ccc(NS(=O)(=O)CCO)cc1N1CCC2(CC1)CC2)c1ccc(OCF)c(N2CC(F)(F)C2)c1 [Compound 516],≤ 100
9,O=C(Nc1ccc(NS(=O)(=O)CCO)cc1N1CCC2(CC1)CC2)c1ccc(OCF)c(OCCC(F)(F)F)c1 [Compound 517],≤ 100
10,O=C(Nc1ccc(NS(=O)(=O)CCO)cc1N1CCC2(CC1)CC2)c1ccc(OCF)c(N2CCC3(CC3)C2)c1 [Compound 518],≤ 100
11,O=C(Nc1ccc(NS(=O)(=O)CCO)cc1N1CCC2(CC1)CC2)c1ccc(OCF)c(OC2CCC2)c1 [Compound 519],≤ 100
12,CC1(F)CCN(c2cc(C(=O)Nc3ccc(NS(=O)(=O)CCO)cc3N3CCC4(CC3)CC4)ccc2OCF)C1 (centres unmarked) [Compound 520],≤ 100

# Now from value to molecule:
row,IC50 [nM],SMILES
1,≤ 100,C[C@@H]1CN(c2nc(NC(=O)c3cnc(NS(=O)(=O)[C@@H](C)CO)cc3N3CCC4(CC3)CC4)ccc2OCF)CCO1 [Compound 495]
2,≤ 100,C[C@@H]1CN(c2nc(NC(=O)c3cnc(NS(=O)(=O)[C@H](C)CO)cc3N3CCC4(CC3)CC4)ccc2OCF)CCO1 [Compound 496]
3,≤ 100,O=C(Nc1ccc(OCF)c(N2CCC(F)(F)CC2)n1)c1cnc(S(=O)(=O)NCCO)cc1N1CCC2(CC1)CC2 [Compound 497]
4,≤ 100,C[C@@H]1CN(c2nc(NC(=O)c3cnc(S(=O)(=O)NCCO)cc3N3CCC4(CC3)CC4)ccc2OCF)CCO1 [Compound 498]
5,≤ 100,C[C@H]1CN(c2nc(NC(=O)c3cnc(S(=O)(=O)NCCO)cc3N3CCC4(CC3)CC4)ccc2OCF)CCO1 [Compound 499]
6,≤ 100,O=C(Nc1ccc(OCF)c(N2CC(F)(F)C2)n1)c1cnc(S(=O)(=O)NCCO)cc1N1CCC2(CC1)CC2 [Compound 500]
7,≤ 100,O=C(Nc1ccc(OCF)c(OCCC(F)(F)F)n1)c1cnc(S(=O)(=O)NCCO)cc1N1CCC2(CC1)CC2 [Compound 501]
8,≤ 100,O=C(Nc1ccc(OCF)c(N2CCC3(CC3)C2)n1)c1cnc(S(=O)(=O)NCCO)cc1N1CCC2(CC1)CC2 [Compound 502]
9,≤ 100,O=C(Nc1ccc(OCF)c(OC2CCC2)n1)c1cnc(S(=O)(=O)NCCO)cc1N1CCC2(CC1)CC2 [Compound 503]
10,≤ 100,CC1(F)CCN(c2nc(NC(=O)c3cnc(S(=O)(=O)NCCO)cc3N3CCC4(CC3)CC4)ccc2OCF)C1 (centres unmarked) [Compound 504]
11,≤ 100,O=C(Nc1ccc(OCF)c(N2CCC(F)CC2)n1)c1cnc(S(=O)(=O)NCCO)cc1N1CCC2(CC1)CC2 [Compound 505]
12,≤ 100,O=C(Nc1ccc(OCF)c(N2CC3CC3C2)n1)c1cnc(S(=O)(=O)NCCO)cc1N1CCC2(CC1)CC2 (centres unmarked) [Compound 506]
13,≤ 100,CC(C)(CO)Nc1nc(C(=O)Nc2cnc(S(=O)(=O)NCCO)cc2N2CCC3(CC2)CC3)ccc1OCF [Compound 507]
14,≤ 100,O=C(Nc1ccc(OCF)c(N2CCOCC2)n1)c1cnc(S(=O)(=O)NCCO)cc1N1CCC2(CC1)CC2 [Compound 508]
